Results on five compounds are retold here after patent US10716787B2, “Combinations” (ASTEX THERAPEUTICS LTD, priority 2014, dated 2020).

The test system of experiment [1] is NCI-H1581 cells. Briefly: Incucyte proliferation (confluence over time), prolonged treatment of NCI-H1581 cells. Format: cell-based. Particulars: 1 microM each agent. How it is done:
(§1) Therefore, NCI-H1581 cells were plated onto 10 cm Collagen I coated plates and placed in an incubator at 37° C., 5% CO2. […] In the case of the parental cells with or without DMSO control, when the cells reached the confluence close to 100% they were trypsinized and re-plated back on the plate. […] After about 3 weeks from the initial treatment, cells were taken out of the plate by trypsinization and passaged on new plate for further expanding. […] (test 1)
The proliferation of the cells was followed using the Incucyt machine, measuring the confluence of the cells over time.

Experiment [2] relates to resistant NCI-H1581 xenografts. Briefly: In vivo study, resistant NCI-H1581 xenografts. Also on record: species or system Athymic nude mice. Particulars: compound A 25 mg/kg p.o. QD for 37 d. How it is done:
Athymic nude mice were inoculated with resistant NCI-H1581 cells (10e^6 cells/200 μl with matrigel, ratio 1:1, into the inguinal region of the mice).
All mice (84) were put into groups (4) and treated from the day of the cell injection.
The mice were treated orally (po), normal volume (250 μl/25 g) once daily and this for 37 days (QD×37). Measurement of the tumor volume was done at day 0, 5, 12, 15, 20, 23, 27, 30, 33, 37.
At day 37 all animals were sacrificed.

In experiment [3] the test system is Parental, unsorted H1581 cells. Briefly: Incucyte live cell imaging proliferation, parental unsorted H1581 cells. Format: cell-based. More on the design: dose or concentration left out as unconfirmed. The following applies: four days. How it is done:
Inhibition of growth of H1581^MET(+) cells by combination of FGFR and MET inhibitors. Parental, unsorted H1581 cells, and sorted H1581^Met(+) cells, subpopulation of H1581 cells that have high Met expression, were plated at 75000 cells per well in 24 well plate. […] Images were acquired every two hours. Proliferation of cells was presented as the mean of percentage of confluence±SD (n=2).

For experiment [4], the system named is most sensitive cancer cell lines. Briefly: Alamar blue cell based proliferation assay, most sensitive cancer cell lines. The method, then: (§2) Cells were seeded in 180 μl of medium at optimized cell densities in black 96 well plates with clear flat bottom. The outer wells were filled with 180 μl of medium. Cells were incubated for 24 hours at 37° C. and 5% CO2.
(§3) Next day compound dilutions were prepared in a 96 well plate with round bottom (Corning #3365). A 50× dilution of the compound was prepared in medium, 4 μl of compound stock in 196 μl of medium in a 96 well plate (Corning #3585).
(§4) Compound/medium plates were placed on a shaker for 10 minutes and then 20 μl of compound in medium was added to the cells (10× dilution). Cells were incubated at 37° C. and 5% CO2 for 4 days until alamarBlue® readout.
(§5) After 4 days of incubation with compound: Add 40 μl of alamarBlue® ready to use mix to each well. Incubate plates at 37° C. and 5% CO2. Measure plates after 4 or 6 hours of incubation (depends on cell line). Shake plates and measure RFU at ex.: 544 nm and em.: 590 nm
(§6) The alamarBlue® Assay incorporates a fluorometric/colorimetric growth indicator based on detection of metabolic activity. Specifically, the system incorporates an oxidation-reduction (REDOX) indicator that both fluoresces and changes color in response to chemical reduction of growth medium resulting from cell growth.

The test system of experiment [5] is Met oncogene. Briefly: Microarray gene expression profiling of resistant versus parental NCI-H1581 cells. Format: cell-based. Particulars: 1 microM, 1 day, 1 week and 2 weeks. How it is done: as §1
The test system of experiment [6] is parental NCI-H1581 cells. Briefly: Alamar blue proliferation assay, parental NCI-H1581 cells. The following applies: for IC50: 4 days incubation. Format: cell-based. The method, then:
as §1
Therefore the parental and resistant cells were profiled on phosphoRTK (receptor tyrosine kinase) arrays, and also for Met total protein expression and phosphorylation. The sensitivity of the cells to selected Met inhibitors (compound C and D) in the Alamar blue proliferation assay was also tested.
as §2, §3, §4, §5, §6
(Alamar Blue is a resazurin reagent that responds to reducing activity.)

Experiment [7] relates to resistant NCI-H1581 cells. Briefly: Alamar blue proliferation assay, resistant NCI-H1581 cells. Format: cell-based. Particulars: for IC50: Resistant cells, 4 days incubation, repeated experiments. How it is done:
The insensitive cells were isolated and profiled with the aim to determine the active signaling pathways that act as drivers for their survival and/or proliferation. Therefore, NCI-H1581 cells were plated onto 10 cm Collagen I coated plates and placed in an incubator at 37° C., 5% CO2. […] In the case of the parental cells with or without DMSO control, when the cells reached the confluence close to 100% they were trypsinized and re-plated back on the plate. In the compound treated plates outgrowth of resistant clones were observed. After about 3 weeks from the initial treatment, cells were taken out of the plate by trypsinization and passaged on new plate for further expanding. […] (test 1)
(§7) Therefore the parental and resistant cells were profiled on phosphoRTK (receptor tyrosine kinase) arrays, and also for Met total protein expression and phosphorylation. The sensitivity of the cells to selected Met inhibitors (compound C and D) in the Alamar blue proliferation assay was also tested. […] Parental NCI-H1581 cells had very low detectable levels of Met protein, and no signal for Met protein phosphorylation (see FIG. 1).
as §2, §3, §4, §5, §6

Experiment [8] deals with Met protein. Briefly: Western blotting of Met phosphorylation in resistant NCI-H1581 cells. Format: cell-based. The following applies: 300 nM, 30 minutes. The method, then:
FIG. 1: Western blotting of protein lysates derived from parental and resistant NCI-H1581 cells treated without (−) or with (+) Met inhibitor, 300 nM compound C, for 30 minutes.
as §7
In general terms: Immunoblotting shows a protein as a band on a membrane.

The mark [9] stands for this setting: Homo sapiens, NCI-H1581, 96 h, Parental cells.

With `COc1cc(OC)cc(N(CCNC(C)C)c2ccc3ncc(-c4cnn(C)c4)nc3c2)c1` [compound A, N-(3,5-dimethoxyphenyl)-N′-(1-methylethyl)-N-[3-(1-methyl-1H-pyrazol-4-yl)quinoxalin-6-yl]ethane-1,2-diamine], the “emergence of resistance (outgrowth of insensitive cells)” value in experiment [1] (continuous treatment) is recorded as “after about three weeks emerging outgrowth of compound insensitive cells was observed”. In addition, the tumor growth entry in experiment [2] was “did not have effect on tumor growth”. For the same compound, in experiment [3], the “cell growth (confluence)” value is “equally inhibited”.

Usually IC50 stands for the concentration at which inhibition is half-maximal. Consider `COc1cc(OC)c(F)c(N(Cc2ncc[nH]2)c2ccc3ncc(-c4cnn(C)c4)nc3n2)c1` [compound B, N-(2-fluoro-3,5-dimethoxyphenyl)-N-(1H-imidazol-2-ylmethyl)-3-(1-methyl-1H-pyrazol-4-yl)pyrido[2,3-b]pyrazin-6-amine], for which the IC50 in experiment [4] is less than 10 nM. Moreover, in experiment [5], the “Met oncogene expression (microarray)” value is given as “upregulated in a time dependent manner”.

As for `Cn1cc(-c2ccc3nnc(C(F)(F)c4ccc5ncccc5c4)n3n2)cn1` [compound C, 6-{Difluoro[6-(1-methyl-1H-pyrazol-4-yl)[1,2,4]triazolo[4,3-b]pyridazin-3-yl]methyl}quinoline], the “proliferation of the parental NCI-H1581 cells (in words)” value in experiment [6] is reported as “but not of the parental NCI-H1581 cells”. Moreover, the concentration for half-maximal inhibition (IC50) in experiment [6] (setting [9]) is greater than 30000 nM. In addition, the “proliferation of the resistant NCI-H1581 cells (in words)” value in experiment [7] is given as “strongly inhibited”. In addition, the Met phosphorylation entry in experiment [8] is reported as “down regulated significantly”.

On to `FC(F)(c1ccc2ncccc2c1)c1nnc2ccc(-c3ccncc3)nn12` [compound D, 6-[Difluoro(6-pyridin-4-yl[1,2,4]triazolo[4,3-b]pyridazin-3-yl)methyl]quinoline], for which the “proliferation of the parental NCI-H1581 cells (in words)” value in experiment [6] is recorded as “but not of the parental NCI-H1581 cells”. Moreover, the 50% inhibitory concentration (IC50) in experiment [6] (Homo sapiens, NCI-H1581, 96 h, Parental cells + DMSO) is greater than 30000 nM; in experiment [6] (setting [9]) it was greater than 10000 nM; in experiment [7] (Homo sapiens, NCI-H1581, 96 h), 341 nM; in experiment [7], 444 nM. Moreover, the “proliferation of the resistant NCI-H1581 cells (in words)” value in experiment [7] is given as “strongly inhibited”. The “proliferation (confluence of the cells over time)” value in experiment [1] is on record as “did not impact the proliferation”.

Turning to `C[C@@H](Oc1cc(-c2cnn(C3CCNCC3)c2)cnc1N)c1c(Cl)ccc(F)c1Cl` [crizotinib, reference compound], the half-maximal inhibitory concentration (IC50) in experiment [6] (setting [9]) came to 6910 nM; in experiment [6] (Parental cells) it was 4950 nM; in experiment [7] (Homo sapiens, NCI-H1581, 96 h) it was 198 nM; in experiment [7], 165 nM.
